From ChEMBL document CHEMBL1201862, “PubChem BioAssay data set” (2004)
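Grown in 96-well plates, cells were treated for 48 hours with each compound at five concentrations. Insufficient inhibition: endpoint recorded as highest concentration tested. The concentration for 50% growth inhibition is given as GI50.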 Calls of active or inactive are those of the source. No stated cut-off is given here; in the data, active = GI50 up to about 1.1 µM and inactive = higher.

Assays:
Test in all cases: growth of human tumour cells (NCI), 48 h
[1] = test system: A498
[2] = test system: KM12
[3] = test system: OVCAR-8
[4] = test system: NCI-H226
[5] = test system: U-251
[6] = test system: MOLT-4
[7] = test system: RXF 393
[8] = test system: PC-3
[9] = test system: NCI-H460
[10] = test system: HT-29
[11] = test system: MDA-N
[12] = test system: HCT-116
[13] = test system: Hs-578T
[14] = test system: SF-539
[15] = test system: EKVX
[16] = test system: NCI-H522
[17] = test system: SW-620
[18] = test system: SN12C
[19] = test system: UO-31
[20] = test system: SK-OV-3

c1ccc2c(c1)Cn1c-2nc2ccccc21
GI50 [1]: > 100 µM (inactive) | GI50 [2]: > 100 µM (inactive) | GI50 [3]: > 100 µM (inactive) | GI50 [4]: 61.7 µM (inactive) | GI50 [5]: > 100 µM (inactive) | GI50 [6]: 31.1 µM (inactive) | GI50 [7]: 82 µM (inactive) | GI50 [8]: > 100 µM (inactive) | GI50 [9]: 97.3 µM (inactive) | GI50 [10]: > 100 µM (inactive) | GI50 [11]: > 100 µM (inactive) | GI50 [12]: > 100 µM (inactive) | GI50 [13]: > 100 µM (inactive) | GI50 [14]: > 100 µM (inactive) | GI50 [15]: > 100 µM (inactive) | GI50 [16]: 43.1 µM (inactive) | GI50 [17]: > 100 µM (inactive) | GI50 [18]: > 100 µM (inactive) | GI50 [19]: 4.83 µM (inactive) | GI50 [20]: > 100 µM (inactive)

CCOC(=O)C1C/C(C)=C(/C)SCCCS1 (stereo not given)
GI50 [1]: > 100 µM (inactive) | GI50 [2]: > 100 µM (inactive) | GI50 [3]: > 100 µM (inactive) | GI50 [4]: > 100 µM (inactive) | GI50 [5]: > 100 µM (inactive) | GI50 [6]: 38.2 µM (inactive) | GI50 [7]: > 100 µM (inactive) | GI50 [8]: > 100 µM (inactive) | GI50 [9]: > 100 µM (inactive) | GI50 [10]: > 100 µM (inactive) | GI50 [11]: > 100 µM (inactive) | GI50 [12]: 50.2 µM (inactive) | GI50 [13]: > 100 µM (inactive) | GI50 [14]: > 100 µM (inactive) | GI50 [15]: > 100 µM (inactive) | GI50 [16]: 13.5 µM (inactive) | GI50 [17]: > 100 µM (inactive) | GI50 [18]: > 100 µM (inactive) | GI50 [19]: > 100 µM (inactive) | GI50 [20]: > 100 µM (inactive)

c1ccc(Nc2nnc(Cn3ccc4ccccc43)s2)cc1
GI50 [1]: > 100 µM (inactive) | GI50 [2]: 34.5 µM (inactive) | GI50 [3]: 64.6 µM (inactive) | GI50 [4]: 58.3 µM (inactive) | GI50 [5]: 42.4 µM (inactive) | GI50 [6]: 23.1 µM (inactive) | GI50 [7]: 73.5 µM (inactive) | GI50 [8]: 19.2 µM (inactive) | GI50 [9]: 47 µM (inactive) | GI50 [10]: 57 µM (inactive) | GI50 [11]: > 100 µM (inactive) | GI50 [12]: 42.7 µM (inactive) | GI50 [13]: 65.6 µM (inactive) | GI50 [14]: 35.6 µM (inactive) | GI50 [15]: 50.8 µM (inactive) | GI50 [16]: 51.8 µM (inactive) | GI50 [17]: 87.3 µM (inactive) | GI50 [18]: > 100 µM (inactive) | GI50 [19]: 36.4 µM (inactive) | GI50 [20]: > 100 µM (inactive)

Cc1ccc2nc(CC(=O)c3ccc4ccccc4c3)c(O)nc2c1
GI50 [1]: > 100 µM (inactive) | GI50 [2]: > 100 µM (inactive) | GI50 [3]: > 100 µM (inactive) | GI50 [4]: > 100 µM (inactive) | GI50 [5]: > 100 µM (inactive) | GI50 [6]: > 100 µM (inactive) | GI50 [7]: > 100 µM (inactive) | GI50 [8]: > 100 µM (inactive) | GI50 [9]: > 100 µM (inactive) | GI50 [10]: 66.2 µM (inactive) | GI50 [11]: > 100 µM (inactive) | GI50 [12]: > 100 µM (inactive) | GI50 [13]: > 100 µM (inactive) | GI50 [14]: > 100 µM (inactive) | GI50 [15]: > 100 µM (inactive) | GI50 [16]: > 100 µM (inactive) | GI50 [17]: > 100 µM (inactive) | GI50 [18]: > 100 µM (inactive) | GI50 [19]: > 100 µM (inactive) | GI50 [20]: > 100 µM (inactive)

c1ccc2c(c1)nc1n2CCCn2ccnc2-1
GI50 [1]: > 100 µM (inactive) | GI50 [2]: > 100 µM (inactive) | GI50 [3]: 67.5 µM (inactive) | GI50 [4]: 68.7 µM (inactive) | GI50 [5]: > 100 µM (inactive) | GI50 [6]: > 100 µM (inactive) | GI50 [7]: > 100 µM (inactive) | GI50 [8]: > 100 µM (inactive) | GI50 [9]: > 100 µM (inactive) | GI50 [10]: > 100 µM (inactive) | GI50 [11]: > 100 µM (inactive) | GI50 [12]: > 100 µM (inactive) | GI50 [13]: > 100 µM (inactive) | GI50 [14]: 96.2 µM (inactive) | GI50 [15]: 43 µM (inactive) | GI50 [16]: > 100 µM (inactive) | GI50 [17]: > 100 µM (inactive) | GI50 [18]: > 100 µM (inactive) | GI50 [19]: 99.3 µM (inactive) | GI50 [20]: 0.0137 µM (active)

COC(=O)c1cc2c(cc1CC1Cc3cc4c(cc3C1)CCC4)CCC2
GI50 [1]: > 100 µM (inactive) | GI50 [2]: 68.7 µM (inactive) | GI50 [3]: > 100 µM (inactive) | GI50 [4]: > 100 µM (inactive) | GI50 [5]: 34.9 µM (inactive) | GI50 [6]: 17.2 µM (inactive) | GI50 [7]: 34 µM (inactive) | GI50 [8]: 74.3 µM (inactive) | GI50 [9]: 51.1 µM (inactive) | GI50 [10]: 36.3 µM (inactive) | GI50 [11]: 36.1 µM (inactive) | GI50 [12]: 35.6 µM (inactive) | GI50 [13]: 66.8 µM (inactive) | GI50 [14]: 79.4 µM (inactive) | GI50 [15]: 52.6 µM (inactive) | GI50 [16]: 25.7 µM (inactive) | GI50 [17]: > 100 µM (inactive) | GI50 [18]: 79.1 µM (inactive) | GI50 [19]: 32 µM (inactive) | GI50 [20]: > 100 µM (inactive)

COc1cc(CSc2ccc(O)cc2)cc(O)c1O
GI50 [1]: > 100 µM (inactive) | GI50 [2]: 25.9 µM (inactive) | GI50 [3]: 26.2 µM (inactive) | GI50 [4]: 23.4 µM (inactive) | GI50 [5]: 28.8 µM (inactive) | GI50 [6]: 25.3 µM (inactive) | GI50 [7]: 50.6 µM (inactive) | GI50 [8]: 49.3 µM (inactive) | GI50 [9]: > 10 µM (inactive) | GI50 [10]: 22.2 µM (inactive) | GI50 [11]: 26.7 µM (inactive) | GI50 [12]: 22.1 µM (inactive) | GI50 [13]: 42.1 µM (inactive) | GI50 [14]: 29.9 µM (inactive) | GI50 [15]: 85.7 µM (inactive) | GI50 [16]: 16.1 µM (inactive) | GI50 [17]: 38.5 µM (inactive) | GI50 [18]: 25.2 µM (inactive) | GI50 [19]: 27.2 µM (inactive) | GI50 [20]: > 10 µM (inactive)
